# Reference: ChEMBL document CHEMBL1201862, “PubChem BioAssay data set” (2004)
# Active and inactive are the calls of the source.
# Assays:
# [1] = target: Voltage-gated inwardly rectifying potassium channel KCNH2 (Homo sapiens, UniProt Q12809); details: Potency;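 note: confirmatory quantitative high-throughput screen measuring inhibition of hERG channel activity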
# [2] = target: Photoreceptor-specific nuclear receptor (Homo sapiens, UniProt Q9Y5X4); type: functional, cell-based;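 note: CHO-S cells with Gal4-NCOR and VP16-NR2E3 two-hybrid luciferase reporter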
# [3] = target: T1, Heat shock factor protein 1 (Mus musculus, UniProt P38532); assay: enhancement of HSF1-driven luciferase signal – cell-based, NIH3T3, luminescence, dose retest, confirmation (AID 435004); type: functional;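 note: stress induced by proteasome inhibitor MG132 added 30 min after compound; luciferase reporter driven by HSF1 response element in NIH3T3 cells; actives raise luminescence as potentiators of the MG132 stress response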
# T1 sequence (P38532 whole entry): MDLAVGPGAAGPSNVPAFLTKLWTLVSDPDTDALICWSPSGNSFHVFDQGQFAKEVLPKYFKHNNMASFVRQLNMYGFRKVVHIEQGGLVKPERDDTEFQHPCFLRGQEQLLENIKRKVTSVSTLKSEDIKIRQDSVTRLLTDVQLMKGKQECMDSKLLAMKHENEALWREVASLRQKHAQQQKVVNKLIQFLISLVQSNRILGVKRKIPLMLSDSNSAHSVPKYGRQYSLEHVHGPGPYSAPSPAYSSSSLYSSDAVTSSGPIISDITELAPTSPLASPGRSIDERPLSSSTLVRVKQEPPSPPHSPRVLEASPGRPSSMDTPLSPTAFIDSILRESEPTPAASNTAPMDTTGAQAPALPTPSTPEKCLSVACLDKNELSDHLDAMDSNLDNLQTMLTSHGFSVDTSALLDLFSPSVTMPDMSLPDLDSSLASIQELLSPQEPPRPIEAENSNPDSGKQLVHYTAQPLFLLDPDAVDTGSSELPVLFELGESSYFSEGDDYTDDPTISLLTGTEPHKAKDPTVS
# INS1 = assay: INS-1E survival protection against cytokine death – cell-based, luminescence, retest, dose response (AID 449756); type: functional; details: Rattus norvegicus;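 note: cell death triggered by IL-1 beta plus TNF-alpha plus IFN-gamma mixture; protective hits raise ATP signal compared with cytokine alone wells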
# cells [4] = type: functional, cell-based
# [5] = target: T2, Type-1 angiotensin II receptor (Homo sapiens, UniProt P30556); assay: antagonism of angiotensin II type 1 receptor – cell-based, uHTS hits, selectivity assay for APJ receptor antagonist project, dose response (AID 463214); type: functional;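 note: antagonist potency against angiotensin II stimulated AT1 response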
# T2 sequence (P30556 whole entry): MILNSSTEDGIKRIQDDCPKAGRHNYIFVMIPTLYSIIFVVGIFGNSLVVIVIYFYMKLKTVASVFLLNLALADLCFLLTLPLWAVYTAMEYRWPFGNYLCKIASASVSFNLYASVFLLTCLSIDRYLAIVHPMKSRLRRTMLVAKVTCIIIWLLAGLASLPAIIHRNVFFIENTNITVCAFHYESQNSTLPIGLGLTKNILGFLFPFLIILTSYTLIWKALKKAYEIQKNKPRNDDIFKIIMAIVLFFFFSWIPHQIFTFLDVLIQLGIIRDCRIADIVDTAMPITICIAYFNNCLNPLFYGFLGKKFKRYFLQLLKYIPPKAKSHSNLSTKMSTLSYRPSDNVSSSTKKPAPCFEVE
# cells [6] = type: functional, cell-based; remark: listed apart in the source
# Beta-galactosidase = Beta-galactosidase (Escherichia coli, UniProt Q8VNN2); assay: PubChem AID 485352; type: functional
# Cytochrome P450 3A4 [7] = target: T3, Cytochrome P450 3A4 (Homo sapiens, UniProt P08684)
# Cytochrome P450 2C9 = Cytochrome P450 2C9 (Homo sapiens, UniProt P11712)
# Cytochrome P450 2C19 = Cytochrome P450 2C19 (Homo sapiens, UniProt P33261); assay: Cytochrome panel assay with activity outcomes. Panel member name: p450-cyp2c19 Compounds with AC50 equal or less than 10 uM are considered active; type: functional; details: read-out: AC50
# [8] = target: T4, Adenosylmethionine-8-amino-7-oxononanoate aminotransferase (Mycobacterium tuberculosis, UniProt P9WQ81); assay: Mycobacterium tuberculosis BioA enzyme inhibitor Measured in Biochemical System Using Plate Reader - 2163-02_Inhibitor_Dose_CherryPick_Activity.; type: functional, Mycobacterium tuberculosis UT205
# T4 sequence (P9WQ81 whole entry): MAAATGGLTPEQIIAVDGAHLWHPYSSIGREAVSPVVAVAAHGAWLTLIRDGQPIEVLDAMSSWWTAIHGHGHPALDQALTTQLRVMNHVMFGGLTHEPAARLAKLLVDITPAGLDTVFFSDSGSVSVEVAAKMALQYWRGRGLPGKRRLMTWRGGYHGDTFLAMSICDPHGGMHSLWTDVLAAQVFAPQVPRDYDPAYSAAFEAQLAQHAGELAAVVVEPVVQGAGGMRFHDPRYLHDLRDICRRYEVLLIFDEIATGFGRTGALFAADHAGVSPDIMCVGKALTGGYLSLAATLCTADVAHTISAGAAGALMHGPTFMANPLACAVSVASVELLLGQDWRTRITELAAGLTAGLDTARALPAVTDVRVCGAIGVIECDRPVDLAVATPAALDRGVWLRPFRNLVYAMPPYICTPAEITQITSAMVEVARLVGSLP
# Cytochrome P450 1A2 = target: T5, Cytochrome P450 1A2 (Homo sapiens, UniProt P05177);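 note: PubChem cytochrome P450 panel assay, CYP1A2 panel member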
# T5 sequence (P05177 whole entry): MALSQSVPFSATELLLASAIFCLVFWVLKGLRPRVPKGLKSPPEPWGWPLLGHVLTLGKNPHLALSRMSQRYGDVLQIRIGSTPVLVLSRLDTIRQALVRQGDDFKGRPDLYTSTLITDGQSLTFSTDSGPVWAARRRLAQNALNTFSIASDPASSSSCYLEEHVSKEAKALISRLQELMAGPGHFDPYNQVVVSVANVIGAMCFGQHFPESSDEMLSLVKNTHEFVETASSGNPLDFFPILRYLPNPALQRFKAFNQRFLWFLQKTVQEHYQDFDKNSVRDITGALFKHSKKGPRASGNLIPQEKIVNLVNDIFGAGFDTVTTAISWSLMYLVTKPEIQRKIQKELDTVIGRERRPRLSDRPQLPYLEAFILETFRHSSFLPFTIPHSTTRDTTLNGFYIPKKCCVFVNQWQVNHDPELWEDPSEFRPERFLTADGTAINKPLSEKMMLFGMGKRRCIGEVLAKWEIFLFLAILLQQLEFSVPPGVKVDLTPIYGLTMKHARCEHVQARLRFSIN
# [9] = system: Streptococcus sp. 'group A'; assay: Streptococcus pyogenes SK(-)GAS viability under kanamycin – luminescence, BacTiterGlo, confirmation, counter-screen for streptokinase expression inhibitor project, dose response (AID 1900); type: functional, organism-based
# Streptokinase A = target: T6, Streptokinase A (Streptococcus pyogenes serotype M1, UniProt P10520); assay: viability-normalized secreted streptokinase activity reduction – plasminogen activation absorbance, OD405, dose response (AID 1914); type: functional, Streptococcus pyogenes M1 GAS;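 note: secreted streptokinase activity via plasminogen activation per viability signal from cell pellet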
# T6 sequence (P10520 whole entry): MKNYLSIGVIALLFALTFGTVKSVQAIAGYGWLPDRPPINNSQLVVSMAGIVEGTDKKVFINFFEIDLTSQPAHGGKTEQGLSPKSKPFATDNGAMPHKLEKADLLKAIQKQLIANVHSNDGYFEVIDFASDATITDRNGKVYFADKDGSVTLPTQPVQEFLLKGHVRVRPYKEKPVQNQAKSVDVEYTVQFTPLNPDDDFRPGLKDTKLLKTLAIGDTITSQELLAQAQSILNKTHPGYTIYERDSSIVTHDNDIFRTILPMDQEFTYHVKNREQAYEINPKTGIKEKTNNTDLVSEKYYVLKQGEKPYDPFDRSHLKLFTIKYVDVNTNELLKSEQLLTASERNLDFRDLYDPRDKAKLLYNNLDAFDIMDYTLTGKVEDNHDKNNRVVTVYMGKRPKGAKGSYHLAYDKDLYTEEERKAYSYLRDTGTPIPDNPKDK
# Streptococcus = assay: GAS UMAA2166 growth inhibition – luminescence, BacTiterGlo, counter-screen for streptokinase expression inhibitor project, dose response (AID 1915); type: functional, organism-based;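 note: potency for reduction of bacterial viability or growth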
# Escherichia coli = assay: microbe, parasite or virus in culture
# [10] = Trypanosoma cruzi growth suppression in host cells – NIH3T3 host cells, beta-gal luminescence, confirmation (AID 2044); type: functional, cell-based;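 note: intracellular parasites grown in NIH/3T3 mouse fibroblasts as host cells; luminescent beta-galactosidase reporter signal from transgenic T. cruzi replicating inside host cells; inhibitors lower the luminescence signal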
# [11] = NIH3T3 cell viability loss – ATP luminescence, mouse fibroblasts, counter-screen, dose response (AID 2010); type: functional, cell-based;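 note: cells exposed to compound for about 90 hours before reading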
# Prothrombin = Prothrombin (Bos taurus, UniProt P00735); assay: thrombin protease inhibitors – biochemical, fluorescence polarization, uHTS hits, dose response (AID 602369); type: functional
# [12] = target: Induced myeloid leukemia cell differentiation protein Mcl-1 (Homo sapiens, UniProt Q07820); type: functional
# [13] = target: 72 kDa type IV collagenase (Homo sapiens, UniProt P08253); assay: Dose Response validation of uHTS RPN11 inhibitor hits using a MMP-2 Fluorescence assay.; type: functional
# [14] = target: 26S proteasome non-ATPase regulatory subunit 14 (Homo sapiens, UniProt O00487); assay: inhibition of proteasome subunit RPN11 – biochemical, fluorescence polarization, uHTS hits, confirmation (AID 602368); type: functional
# Vero = assay: cells; type: functional, cell-based; details: Chlorocebus sabaeus
# [15] = target: Glucose-6-phosphate 1-dehydrogenase (Homo sapiens, UniProt P11413); assay: inhibition of Homo sapiens G6PD, dose series – biochemical, fluorescence, selectivity assay for P. falciparum G6PD inhibitor project, dose response (AID 504792); type: functional
# [16] = viability of uninfected HEp-2 cells – cell-based, HTS, cytotoxicity control for RSV inhibitor project, dose response (AID 2410); type: functional; details: human respiratory syncytial virus
# Cytochrome P450 3A4 [17] = target: T3, Cytochrome P450 3A4; details: Potency
# Large T antigen = Large T antigen (Simian virus 40, UniProt P03070); type: functional, Betapolyomavirus macacae;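 note: Confirmatory-stage PubChem screen for compounds that inhibit SV40 T antigen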
# Chain of Cytochrome P450 2C9 (P11712 whole entry): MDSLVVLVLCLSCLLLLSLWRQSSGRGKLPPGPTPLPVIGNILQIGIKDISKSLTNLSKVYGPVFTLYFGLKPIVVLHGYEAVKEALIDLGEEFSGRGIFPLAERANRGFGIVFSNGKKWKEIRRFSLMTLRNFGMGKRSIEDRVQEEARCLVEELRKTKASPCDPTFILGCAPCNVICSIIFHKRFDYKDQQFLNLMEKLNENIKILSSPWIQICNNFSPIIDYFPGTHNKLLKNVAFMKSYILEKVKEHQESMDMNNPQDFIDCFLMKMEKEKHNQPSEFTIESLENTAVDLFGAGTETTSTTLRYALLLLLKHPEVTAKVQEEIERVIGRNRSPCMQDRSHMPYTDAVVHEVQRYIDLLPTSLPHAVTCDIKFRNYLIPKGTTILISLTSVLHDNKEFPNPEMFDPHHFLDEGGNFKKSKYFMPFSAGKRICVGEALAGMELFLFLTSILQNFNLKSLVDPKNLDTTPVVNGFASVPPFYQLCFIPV
# Chain of Beta-galactosidase (Q8VNN2 whole entry): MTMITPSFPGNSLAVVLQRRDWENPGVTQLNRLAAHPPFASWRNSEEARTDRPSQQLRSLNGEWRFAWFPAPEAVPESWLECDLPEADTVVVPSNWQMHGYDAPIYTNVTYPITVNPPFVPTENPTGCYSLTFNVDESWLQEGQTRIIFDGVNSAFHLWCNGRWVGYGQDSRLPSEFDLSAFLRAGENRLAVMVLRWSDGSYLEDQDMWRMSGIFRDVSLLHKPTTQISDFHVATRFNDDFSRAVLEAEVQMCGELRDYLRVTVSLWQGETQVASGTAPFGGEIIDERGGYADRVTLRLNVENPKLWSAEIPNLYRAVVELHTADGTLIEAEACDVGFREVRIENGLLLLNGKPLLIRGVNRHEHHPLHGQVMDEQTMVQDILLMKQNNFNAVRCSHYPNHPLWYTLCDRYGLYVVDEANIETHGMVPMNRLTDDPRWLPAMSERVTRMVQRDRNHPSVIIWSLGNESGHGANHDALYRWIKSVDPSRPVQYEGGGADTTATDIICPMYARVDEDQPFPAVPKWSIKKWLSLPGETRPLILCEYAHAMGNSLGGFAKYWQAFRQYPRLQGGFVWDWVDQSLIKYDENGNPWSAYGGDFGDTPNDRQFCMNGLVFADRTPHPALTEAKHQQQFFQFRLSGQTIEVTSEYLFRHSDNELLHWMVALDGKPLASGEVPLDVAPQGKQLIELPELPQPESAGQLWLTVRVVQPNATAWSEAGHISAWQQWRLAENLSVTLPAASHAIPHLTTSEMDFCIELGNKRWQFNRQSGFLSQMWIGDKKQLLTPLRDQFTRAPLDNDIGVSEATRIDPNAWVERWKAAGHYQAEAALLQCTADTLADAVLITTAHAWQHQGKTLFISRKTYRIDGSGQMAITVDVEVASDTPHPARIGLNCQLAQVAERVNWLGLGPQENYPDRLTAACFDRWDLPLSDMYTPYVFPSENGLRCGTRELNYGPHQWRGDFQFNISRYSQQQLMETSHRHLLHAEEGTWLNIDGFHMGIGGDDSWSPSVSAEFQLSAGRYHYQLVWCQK
# Chain of Photoreceptor-specific nuclear receptor (Q9Y5X4 whole entry, the tested form may be a part): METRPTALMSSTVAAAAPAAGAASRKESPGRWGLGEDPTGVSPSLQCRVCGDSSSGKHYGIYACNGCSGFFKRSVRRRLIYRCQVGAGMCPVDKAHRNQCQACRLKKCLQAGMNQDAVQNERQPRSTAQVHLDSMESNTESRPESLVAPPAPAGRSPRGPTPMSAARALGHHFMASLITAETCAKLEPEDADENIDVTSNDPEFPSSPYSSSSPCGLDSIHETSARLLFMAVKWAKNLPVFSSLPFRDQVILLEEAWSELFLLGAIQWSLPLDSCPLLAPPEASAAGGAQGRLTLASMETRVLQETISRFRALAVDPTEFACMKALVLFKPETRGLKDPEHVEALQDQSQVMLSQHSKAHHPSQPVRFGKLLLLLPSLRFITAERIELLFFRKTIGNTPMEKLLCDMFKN
# Chain of Voltage-gated inwardly rectifying potassium channel KCNH2 (Q12809 whole entry, the tested form may be a part): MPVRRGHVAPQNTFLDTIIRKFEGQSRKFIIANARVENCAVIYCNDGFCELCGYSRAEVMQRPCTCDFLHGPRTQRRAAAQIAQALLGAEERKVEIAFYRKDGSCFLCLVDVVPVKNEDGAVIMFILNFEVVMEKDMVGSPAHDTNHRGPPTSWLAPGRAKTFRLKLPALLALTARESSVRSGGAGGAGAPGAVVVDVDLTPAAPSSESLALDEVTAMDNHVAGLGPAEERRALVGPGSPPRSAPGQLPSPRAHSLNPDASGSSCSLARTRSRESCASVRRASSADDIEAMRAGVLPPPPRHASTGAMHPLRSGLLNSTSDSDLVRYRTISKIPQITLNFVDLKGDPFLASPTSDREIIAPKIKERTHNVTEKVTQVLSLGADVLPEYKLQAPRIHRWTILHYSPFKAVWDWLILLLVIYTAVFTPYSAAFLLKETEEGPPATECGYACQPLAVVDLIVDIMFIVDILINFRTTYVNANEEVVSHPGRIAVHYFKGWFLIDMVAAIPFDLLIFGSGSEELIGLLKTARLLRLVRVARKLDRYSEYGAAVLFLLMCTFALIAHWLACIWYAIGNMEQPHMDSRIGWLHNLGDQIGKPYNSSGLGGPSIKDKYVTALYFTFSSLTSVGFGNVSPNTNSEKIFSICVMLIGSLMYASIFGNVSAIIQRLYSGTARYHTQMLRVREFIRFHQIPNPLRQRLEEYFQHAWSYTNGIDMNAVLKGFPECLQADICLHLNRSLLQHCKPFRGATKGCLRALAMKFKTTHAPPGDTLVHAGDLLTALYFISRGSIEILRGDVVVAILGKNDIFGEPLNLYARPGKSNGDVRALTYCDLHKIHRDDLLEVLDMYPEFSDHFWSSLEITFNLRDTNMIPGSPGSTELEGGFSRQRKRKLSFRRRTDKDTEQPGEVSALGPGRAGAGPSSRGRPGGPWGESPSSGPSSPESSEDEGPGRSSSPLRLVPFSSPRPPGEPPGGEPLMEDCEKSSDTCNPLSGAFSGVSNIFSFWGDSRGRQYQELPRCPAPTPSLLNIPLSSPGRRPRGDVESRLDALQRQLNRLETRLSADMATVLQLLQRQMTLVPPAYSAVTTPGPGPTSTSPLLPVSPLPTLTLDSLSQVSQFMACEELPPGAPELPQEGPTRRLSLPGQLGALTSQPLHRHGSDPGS
# T3 sequence (P08684 whole entry): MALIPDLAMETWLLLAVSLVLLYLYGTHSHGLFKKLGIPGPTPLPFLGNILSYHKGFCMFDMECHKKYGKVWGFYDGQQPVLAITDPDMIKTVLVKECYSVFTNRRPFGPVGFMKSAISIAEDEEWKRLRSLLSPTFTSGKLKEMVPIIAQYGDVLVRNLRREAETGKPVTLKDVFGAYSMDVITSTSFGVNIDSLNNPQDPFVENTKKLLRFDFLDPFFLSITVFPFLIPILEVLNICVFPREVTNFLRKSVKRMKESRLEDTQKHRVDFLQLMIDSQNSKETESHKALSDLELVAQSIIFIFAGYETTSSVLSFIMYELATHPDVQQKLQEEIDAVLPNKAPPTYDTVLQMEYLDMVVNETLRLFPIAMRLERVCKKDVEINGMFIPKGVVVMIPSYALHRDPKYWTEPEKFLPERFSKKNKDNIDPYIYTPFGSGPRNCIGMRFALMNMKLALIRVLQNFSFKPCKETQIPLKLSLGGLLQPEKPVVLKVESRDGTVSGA
# Chain of Cytochrome P450 2C19 (P33261 whole entry): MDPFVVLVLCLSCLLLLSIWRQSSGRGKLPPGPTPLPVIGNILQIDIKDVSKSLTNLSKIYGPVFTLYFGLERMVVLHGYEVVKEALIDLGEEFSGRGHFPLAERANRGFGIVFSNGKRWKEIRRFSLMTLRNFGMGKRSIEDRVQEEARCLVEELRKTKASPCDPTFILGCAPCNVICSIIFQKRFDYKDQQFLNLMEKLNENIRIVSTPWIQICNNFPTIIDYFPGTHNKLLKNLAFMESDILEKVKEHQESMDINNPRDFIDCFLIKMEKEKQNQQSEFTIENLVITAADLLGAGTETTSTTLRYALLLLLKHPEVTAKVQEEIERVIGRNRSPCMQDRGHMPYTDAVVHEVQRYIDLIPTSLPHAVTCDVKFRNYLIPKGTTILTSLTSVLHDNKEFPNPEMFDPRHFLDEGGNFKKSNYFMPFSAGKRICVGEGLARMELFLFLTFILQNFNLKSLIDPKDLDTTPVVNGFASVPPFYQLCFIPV
# Chain of Glucose-6-phosphate 1-dehydrogenase (P11413 whole entry): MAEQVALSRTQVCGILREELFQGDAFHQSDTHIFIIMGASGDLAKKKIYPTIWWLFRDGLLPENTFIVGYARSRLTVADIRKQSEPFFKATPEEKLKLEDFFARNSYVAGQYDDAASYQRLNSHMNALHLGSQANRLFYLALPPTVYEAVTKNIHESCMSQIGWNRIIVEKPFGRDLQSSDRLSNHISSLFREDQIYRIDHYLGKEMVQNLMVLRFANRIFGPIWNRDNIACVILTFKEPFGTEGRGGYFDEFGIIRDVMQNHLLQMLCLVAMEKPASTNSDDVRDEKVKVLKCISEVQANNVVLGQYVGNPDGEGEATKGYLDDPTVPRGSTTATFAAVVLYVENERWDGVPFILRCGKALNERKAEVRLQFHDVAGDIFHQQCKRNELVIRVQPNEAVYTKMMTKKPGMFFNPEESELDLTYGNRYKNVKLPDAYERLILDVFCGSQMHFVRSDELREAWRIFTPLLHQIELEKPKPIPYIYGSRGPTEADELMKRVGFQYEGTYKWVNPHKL
# Chain of Induced myeloid leukemia cell differentiation protein Mcl-1 (Q07820 whole entry): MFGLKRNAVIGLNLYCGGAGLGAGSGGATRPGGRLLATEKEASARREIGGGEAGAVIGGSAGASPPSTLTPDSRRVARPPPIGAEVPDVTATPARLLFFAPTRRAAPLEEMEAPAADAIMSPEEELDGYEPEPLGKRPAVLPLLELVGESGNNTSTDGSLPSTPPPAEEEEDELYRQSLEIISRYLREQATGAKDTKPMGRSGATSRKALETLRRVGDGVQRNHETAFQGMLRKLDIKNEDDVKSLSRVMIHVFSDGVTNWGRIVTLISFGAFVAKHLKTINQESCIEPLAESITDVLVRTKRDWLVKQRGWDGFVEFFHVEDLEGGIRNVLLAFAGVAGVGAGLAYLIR
compound,measurement,setting,value
c1ccc2c(N3CCNCC3)cccc2c1,AC50,[1],35.5 µM (inconclusive)
N#C/C(=C\c1ccc(Sc2nc3ccccc3[nH]2)o1)c1ccccc1,IC50,[2],4.69 µM (active)
same,EC50,[3],23.6 µM (active)
O=C(Nc1nc(-c2ccccn2)cs1)c1cc(Cl)ccc1[N+](=O)[O-],AC50,INS1,1.06 µM (active)
same,EC50,cells [4],9.68 µM (active)
same,IC50,[5],5.37 µM (active)
same,EC50,cells [6],> 350 µM (not active)
same,EC50,Beta-galactosidase,> 40 µM (inactive)
CC(C(=O)OCC(=O)c1cccc([N+](=O)[O-])c1)N1C(=O)C2C3C=CC(C3)C2C1=O (stereo unspecified),IC50,[5],> 40 µM (not active)
same,EC50,Beta-galactosidase,> 40 µM (inactive)
COc1ccc(C(=O)Nc2ccc(F)cc2F)cc1OC,AC50,Cytochrome P450 3A4 [7],25.1 µM (inconclusive)
same,AC50,Cytochrome P450 2C9,inconclusive
same,AC50,Cytochrome P450 2C19,39.8 µM (inconclusive)
COC(=O)c1c(C(=O)OC)c(-c2ccccc2)n2c1C[S+]([O-])C2 (stereo unspecified),AC50,[8],4.67 µM (active)
COC(=O)C1=C(C)N(Cc2ccccc2)C(=NCC(C)C)N[C@H]1c1cccc(F)c1,IC50,[5],> 40 µM (not active)
same,EC50,Beta-galactosidase,> 40 µM (inactive)
O=c1c(-c2ccc(Cl)cc2)nc2cnc(N3CCOCC3)nc2n1-c1ccccc1,AC50,Cytochrome P450 2C9,inconclusive
same,AC50,Cytochrome P450 1A2,2 µM (inconclusive)
CCOc1ccc(CCNC(=O)c2cccnc2N2CCCC2)cc1OCC,IC50,[5],> 40 µM (not active)
same,EC50,Beta-galactosidase,> 40 µM (inactive)
Cc1c(C(=O)Nc2ccc(Oc3ccccc3)cc2)sc2nc3n(c(=O)c12)CCC3,IC50,[2],2.78 µM (active)
same,EC50,[9],6.66 µM (active)
same,EC50,Streptokinase A,39 µM (active)
same,EC50,Streptococcus,> 150 µM (not active)
CCCCCCc1ccc(-c2ccc(C#N)cc2)cc1,AC50,[1],6.31 µM (inconclusive)
COc1ccc(OC)c(NC(=O)CSc2nnnn2-c2ccc3c(c2)OCO3)c1,IC50,[2],0.24 µM (active)
O=S(=O)(NC1CCCCC1)c1ccc(Cl)s1,AC50,Escherichia coli,115 µM (active)
N=C1N=C(N)c2cc3ccccc3cc21,AC50,[1],28.2 µM (inconclusive)
CC(Oc1ccc2c(-c3ccccc3)cc(=O)oc2c1)C(=O)NCCCN1CCOCC1 (stereo unspecified),AC50,Escherichia coli,62.1 µM (active)
Cc1nc2nc(SCC(=O)N3CCOCC3)nn2c(C)c1Cc1c(F)cccc1Cl,AC50,[8],0.217 µM (active)
CCC(Sc1nc(C)cc(=O)[nH]1)C(=O)Nc1sc2c(c1C#N)CCCC2 (stereo unspecified),IC50,[2],5.4 µM (active)
CCOC(=O)c1c(C)[n+](-c2ccc(C)cc2)c(CC)c2cc(OC)c(OC)cc12,EC50,[10],0.292 µM (active)
same,AC50,[8],4.21 µM (active)
same,EC50,[11],> 60 µM (not active)
Cc1ccc(NC(=O)C2CCN(S(=O)(=O)c3c(C)n[nH]c3C)CC2)nc1,AC50,Cytochrome P450 2C9,inconclusive
same,AC50,Cytochrome P450 2C19,39.8 µM (inconclusive)
CS(=O)(=O)C1=NSC2=NC(=O)/C(=C\c3cccn3-c3ccccc3Cl)C(=N)N21,IC50,Prothrombin,52.6 µM (active)
same,IC50,[12],4.35 µM (active)
same,IC50,[13],> 100 µM (inactive)
same,IC50,[14],30 µM (active)
O=c1c2cccnc2[nH]c(=S)n1CCCN1CCN(c2ccccc2F)CC1,IC50,Vero,24.6 µM (active)
CCOC(=O)c1c(N/C=C(\C#N)c2nc(-c3ccc(OC(C)=O)cc3)cs2)sc2c1CCC2,AC50,Escherichia coli,12.3 µM (active)
C=CCNc1ccccc1S(=O)(=O)NCc1ccccc1,AC50,Escherichia coli,> 150 µM (inactive)
COC(=O)C[C@@H]1C[C@@H]2c3cc(NC(=O)c4cccnc4)ccc3O[C@@H]2[C@@H](CO)O1,AC50,[8],13.6 µM (active)
CCc1ccc(OCC(=O)N/N=C/c2cc([N+](=O)[O-])ccc2N2CCOCC2)cc1,IC50,[15],> 80 µM (inactive)
same,CC50,[16],> 50 µM (active)
O=c1onc2n1-c1cc(Br)ccc1OC2,AC50,Cytochrome P450 3A4 [7],20 µM (inconclusive)
same,AC50,[1],5.62 µM (inconclusive)
O=C(O)/C=C/c1ccc(O)c(O)c1 [CAFFEIC ACID],AC50,Cytochrome P450 3A4 [17],25.1 µM (inconclusive)
same,AC50,[1],2.51 µM (inconclusive)
same,IC50,Large T antigen,7.3 µM (active)
